Source: patent US11806343B2, “Inhibitors of DUX4 induction for regulation of muscle function” (Sonic Master Limited, priority 2017, dated 2023)

Legend:
Assay type in all cases: cell-based, human
PRKDC = assay: RT-PCR of PRKDC mRNA in patient biopsy-derived primary myotubes; settings: 10 nM-1 μM, 2.5 days, vs vehicle
Protocol: Patient biopsy-derived primary myoblasts were seeded to a collagen-I coated plate in primary myoblast medium. Medium was changed every other day until cells reached 80% confluence followed by a switch to primary myotube medium. […] After 2.5 days of myotube formation, the cells were lysed with buffer RLT followed by RNA isolation with RNeasy Plus Mini Kit (Qiagen). 500 ng of RNA was used for cDNA synthesis with SuperScript III first-strand synthesis system for RT-PCR (Invitrogen) and both random hexamers and oligo(dT)20 primers. RT-PCR was performed using TaqMan™ Fast Advanced Master Mix (Applied Biosystems). Reactions were analyzed upon a QuantStudio 3 Real-Time PCR machine using the following cycle conditions: 50° C. for 2 minutes, 95° C. for 2 minutes, followed by 40 cycles at 95° C. for 15 seconds, 60° C. for 1 minute, Results were normalized against GAPDH expression.

[1] = system: 4qA and D4Z4 regions of chromosome 4; assay: Bisulfite sequencing of DNA methylation at 4qA and D4Z4 regions in FSHD-affected myotubes; settings: Genea049 FSHD-affected myotubes, 10 nM, 100 nM or 1 μM, myotube day 3
Protocol: Healthy (Genea015) or FSHD-affected (Genea049) MSC-derived myoblasts were cultured in Myoblast Media (Genea Biocells) while performing media changes every other day. When cells reached confluence, the medium was switched to Myottibe Medium (Genea Biocells) without any further media changes. On myotube day 3, cells were trypsinized and cell pellets were prepared for bisulfite sequencing analysis. Genomic DNA was isolated from cell pellets using QIAamp DNA Blood Mini Kit (Qiagen) and bisultite converted using the EpiTect Kit (Qiagen). The 4qA and D4Z4 regions were amplified and cloned into the pCR2.1 TOPO vector. The 4qA or D4Z4 containing plasmids were transformed into TOP10 chemically competent E. coli and selected for kanamycin resistance. Sequencing of kanamycin resistant colonies was completed by Sequegen and methylation analysis was performed using Bisulfite Sequencing DNA Methylation Analysis (BISMA) online software.
FSHD-affected. (Genea049) embryonic stem cell-derived myoblasts were cultured in Myoblast Media (Genea Biocells) while performing media changes every other day. When cells reached confluence, the medium was switched to Myotube Medium (Genea. Biocells) without any further media changes. […] On myotube day 3, myotubes were trypsinized and cell pellets were prepared for bisulfite sequencing analysis. Refer to the FIG. 1 legend for additional details.

myotube marker genes = assay: Nanostring panel transcript analysis, myogenic genes; settings: 17MB026 primary myotubes, 30 nM-3 μM, 3 days
Protocol: (§1) 17MB026 primary FSHD-affected patient myoblasts (obtained from the University of Rochester FSHD Biorepository) were thawed and cultured as described in Rickard et al., 2015 in primary myoblast medium. Cells (4000 per well) were seeded to a collagen-I coated 96-well plate in 100 μL primary myoblast medium. Medium was changed every other day until cells reached 80% confluence followed by a switch to 100 μL per well primary myotube medium. […] Cells were lysed after 3 days of myotube formation using 10 μL of iScript Buffer (Biorad) per well. The resulting lysates were frozen at −30° C. After thaw, 5 μL of each lysate was combined with a custom-designed Nanostring transcript probe and capture codeset. Probes were hybridized to lysates and run cartridge was loaded and run per standard protocol. Normalization and background subtraction were performed using the nSolver 3.0 software using standard conditions DUX4 target gene and myotube marker gene expression values were normalized to a standard set of housekeeping genes. Duplicate wells of each condition were averaged.

Genea049 FSHD hESC-SkM = assay: FSHD hESC-SkM immunocytochemistry, Myosin Heavy Chain and nuclei (myogenic inhibition/toxicity)
Protocol: FIG. 6 provides an example of a screening and culturing workflow for hESC-SkM assays. At Day 0, hESC-derived myoblasts are thawed into a 96-well plate in myoblast medium (Genea BioCells). On Day 2, the medium is replaced with new myoblast medium containing 1.15 μM. Decitabine. […] On Day 7, the myotubes are analyzed. For example, the myotubes may be analyzed for MHC expression or DUX4 expression.
(§2) Genea049 FSHD-affected human Embryonic Stem Cells (hESCs) were differentiated using Genea's myogenic differentiation protocol (Caron et 2015) to the myoblast stage and cryopreserved. Frozen myoblasts were resuscitated and 4500 cells were plated into each well of a 96-well collagen I coated tissue culture plate in myoblast medium. After two days of cell growth medium was changed to 100 μL per well myoblast medium containing 1.15 μM Decitabine. […] Cells were allowed to differentiate to myotubes for four additional days then were fixed and analyzed for quantification of DUX4 expression, Myosin Heavy Chain expression, and nuclei number. Triplicate wells of each condition were averaged.
as §2, with “et al.,” for “et”, “number by high-content imaging.” for “number.”

Caspase 3/7 = assay: Live cell imaging of Caspase 3/7 cleavage dye fluorescence through myotube formation; settings: 17MB026 primary myotubes, six concentrations 10 nM-3 μM, imaged four days
Protocol: 17MB026 primary FSHD-affected patient myoblasts (obtained from the University of Rochester FSHD Biorepository) were thawed and cultured as described in Rickard et al., 2015 in primary myoblast medium. Cells (4000 per well) were seeded to a collagen-I coated 96-well plate in 100 μL primary myoblast medium. Medium was changed every other day until cells reached 80% continence followed by a switch to 100 μL per well primary myotube medium containing 1:5000 diluted Caspase 3/7 Green. Apoptosis Assay Reagent (Essen Bioscience). […] Cells were imaged in the phase and green channels every six hours for four days to quantify green intensity×area per image. Triplicate wells of each condition were averaged.

DUX4 target genes = assay: Nanostring panel transcript analysis, DUX4 target genes; settings: 17MB026 primary myotubes, six-point dose curve 30 nM-3 μM, 3 days
Protocol: as §1

DUX4 = assay: FSHD primary patient biopsy myotube immunocytochemistry, DUX4 expression
Protocol: FIG. 10 provides the workflow for assays performed with patient biopsy-derived muscle. On Day 0, patient myoblasts are passaged in a 96-well dish in primary myoblast medium (Genea BioCells). On Day 2, the medium is changed to […].
17MB026 primary FSHD-affected patient myoblasts (obtained from the University of Rochester FSHD Biorepository) were thawed and cultured as described in Rickard et al., 2015 in primary myoblast medium. Cells (6000 per well) were seeded to a collagen-I coated 96-well plate in 100 μl primary myoblast medium. Medium was changed every other day until cells reached 80% confluence followed by a switch to 100 μL per well primary myotube medium. […] Cells were fixed and analyzed after 2.5 days of myotube formation by immunocytochemistry and high-content imaging for DUX4, H3.X/Y, Myosin Heavy Chain expression and nuclei number. Five or six replicate wells were averaged per condition, […]

In the case of `CNC(=O)c1cc(Oc2ccc(NC(=O)Nc3cc(C(C)(C)C)nn3-c3ccc4ncccc4c3)c(F)c2)ccn1` [GBC0905, Rebastinib], the “expression levels of PRKDC (mRNA)” value (PRKDC) is reported as “No significant difference”, the “DNA methylation levels at 4qA or D4Z4 regions” value [1] is reported as “No statistically significant effect” and the “expression of characteristic myotube genes” value (myotube marker genes) is reported as “does not decrease expression of queried characteristic myotube genes”. The “Myosin Heavy Chain expression and nuclei count, dose curve” value (Genea049 FSHD hESC-SkM; 10 nM-3 μM, four days) was “not seen in cells treated with GBC0905 (Rebastinib) at concentrations lower than 3 μM”, the “Myosin Heavy Chain expression and nuclei count” value (Genea049 FSHD hESC-SkM; 100 nM, four days of culture) was “these effects are not seen” and the “Caspase 3/7 activation” value (Caspase 3/7) was “dose-dependent decrease in Caspase 3/7 activation”. For the same compound, the “expression of DUX4-activated genes” value (DUX4 target genes) was “dose-dependent decrease of 11 DUX4-activated genes”, the “DUX4 expression, dose curve” value (DUX4; 17MB026 primary myotubes, 10-point dose curve 2 nM-5 μM, 2.5 days) was “dose-dependent decrease of DUX4 expression” and the IC50 (DUX4; Homo sapiens, Myotube, 17MB026 primary FSHD patient myotubes, read-out: IC50 value, DUX4-suppressive effect) was about 100 nM.
